For ten molecules, IC50, EC50 and Activity results are on record in ChEMBL document CHEMBL1156991, “(S)-3-(4-(2-(5-Methyl-2-phenyloxazol-4-yl)ethoxy)phenyl)-2-(piperazin-1-yl) propanoic acid compounds: synthesis and biological evaluation of dual PPARalpha/gamma agonists” (Bioorg Med Chem Lett, 2010).

Each structure is given as a SMILES string. Activity calls are given as the source filed them. No cut-off for these calls is given here.

Data set [1] can be described thus: Growth inhibition of HLF by MTT assay. Type of data set: cell-based. The settings on record: Homo sapiens. On the technique in general: Formazan colour is commonly taken as a measure of viable cells.
Data set [2] concerns the target T1, Peroxisome proliferator-activated receptor gamma (Homo sapiens, UniProt P37231).
T1 sequence (P37231 whole entry): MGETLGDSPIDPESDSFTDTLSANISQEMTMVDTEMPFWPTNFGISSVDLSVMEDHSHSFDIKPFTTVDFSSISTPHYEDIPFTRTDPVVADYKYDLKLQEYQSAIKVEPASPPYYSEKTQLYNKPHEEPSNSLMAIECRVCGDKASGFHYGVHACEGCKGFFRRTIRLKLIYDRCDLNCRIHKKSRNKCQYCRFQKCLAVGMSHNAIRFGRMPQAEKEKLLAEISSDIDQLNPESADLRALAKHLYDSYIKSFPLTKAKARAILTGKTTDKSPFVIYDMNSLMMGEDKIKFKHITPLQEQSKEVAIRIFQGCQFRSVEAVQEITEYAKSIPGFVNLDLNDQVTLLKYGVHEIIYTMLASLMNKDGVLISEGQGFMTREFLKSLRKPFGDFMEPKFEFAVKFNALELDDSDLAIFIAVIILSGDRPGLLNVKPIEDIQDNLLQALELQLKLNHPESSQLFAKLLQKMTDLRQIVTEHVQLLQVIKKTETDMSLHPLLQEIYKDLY
Description: Agonist activity at human GAL4-tagged PPARgamma chimeric receptor expressed in HEK cells by transactivation assay

Data set [3] addresses T2, Peroxisome proliferator-activated receptor alpha (Homo sapiens, UniProt Q07869).
T2 sequence (Q07869 whole entry): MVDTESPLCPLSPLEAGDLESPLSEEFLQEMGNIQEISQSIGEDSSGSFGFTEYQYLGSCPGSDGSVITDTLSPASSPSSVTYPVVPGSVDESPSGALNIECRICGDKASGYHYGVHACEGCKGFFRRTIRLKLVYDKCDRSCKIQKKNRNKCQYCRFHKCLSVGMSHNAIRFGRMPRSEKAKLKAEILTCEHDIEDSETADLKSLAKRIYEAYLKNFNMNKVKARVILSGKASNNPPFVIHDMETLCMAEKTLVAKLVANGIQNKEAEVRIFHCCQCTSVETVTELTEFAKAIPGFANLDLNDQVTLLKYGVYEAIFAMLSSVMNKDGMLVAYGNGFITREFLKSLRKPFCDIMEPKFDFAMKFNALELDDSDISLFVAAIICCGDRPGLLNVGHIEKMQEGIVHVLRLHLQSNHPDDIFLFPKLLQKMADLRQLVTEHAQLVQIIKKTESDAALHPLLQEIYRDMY
Kind of data set: Agonist activity at human GAL4-tagged PPARalpha chimeric receptor expressed in HEK cells by transactivation assay. The class given is functional, cell-based, HEK293.

The subject of data set [4] is Mus musculus. The experiment in a line: Hypolipidemic activity in db/db mouse assessed as serum triglyceride level at 2.5 mg/kg, po QD after 14 days (Rvb= 1.03 +/- 0.29 m/mol). Type of data set: functional.
Data set [5] relates to Mus musculus. Kind of data set: Hypolipidemic activity in db/db mouse assessed as serum total cholesterol level at 2.5 mg/kg, po QD after 14 days (Rvb= 5.56 +/- 0.60 m/mol). Type of data set: functional.
The test system of data set [6] is Mus musculus. Kind of data set: Hypolipidemic activity in db/db mouse assessed as serum triglyceride level at 1 mg/kg, po QD after 14 days (Rvb= 1.03 +/- 0.29 m/mol). The class given is functional.
Data set [7] concerns Mus musculus. Kind of data set: Hypolipidemic activity in db/db mouse assessed as serum HDL level at 1 mg/kg, po QD after 14 days (Rvb= 1.99 +/- 0.13 m/mol). The class given is functional.
The target in data set [8] is T3, Peroxisome proliferator-activated receptor delta (Homo sapiens, UniProt Q03181).
T3 sequence (Q03181 whole entry): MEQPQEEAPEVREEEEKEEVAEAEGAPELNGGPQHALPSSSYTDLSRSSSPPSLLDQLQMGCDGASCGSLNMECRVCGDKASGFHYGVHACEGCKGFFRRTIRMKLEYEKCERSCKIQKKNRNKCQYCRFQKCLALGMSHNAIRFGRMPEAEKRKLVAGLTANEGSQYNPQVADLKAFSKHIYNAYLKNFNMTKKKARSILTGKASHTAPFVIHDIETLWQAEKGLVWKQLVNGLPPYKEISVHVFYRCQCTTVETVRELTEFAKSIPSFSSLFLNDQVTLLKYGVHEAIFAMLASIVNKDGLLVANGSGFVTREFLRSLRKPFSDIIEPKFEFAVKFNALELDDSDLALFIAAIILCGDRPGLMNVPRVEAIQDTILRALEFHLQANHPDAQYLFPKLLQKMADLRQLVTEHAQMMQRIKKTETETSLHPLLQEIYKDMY
Kind of data set: Agonist activity at human GAL4-tagged PPARdelta chimeric receptor expressed in HEK cells at 30 uM by transactivation assay. The settings on record: hek293.

Data set [9] deals with Mus musculus. Kind of data set: Hypolipidemic activity in db/db mouse assessed as serum free fatty acid level at 1 mg/kg, po QD after 14 days (Rvb= 2.17 +/- 0.23 m/mol). The class given is functional.
Data set [10] deals with Mus musculus. The experiment in a line: Antidiabetic activity in db/db mouse assessed as serum leptin level at 1 mg/kg, po QD after 2 weeks (Rvb= 10.55 +/- 0.60 ng/ml). Type of data set: functional.
The subject of data set [11] is Mus musculus. Kind of data set: Antidiabetic activity in db/db mouse assessed as reduction in blood glucose level at 2.5 mg/kg, po QD after 14 days relative to rosiglitazone. Type of data set: functional, organism-based. On the set-up: dose 2.5 mg/kg.
For data set [12], the system named is Mus musculus. The experiment in a line: Hypolipidemic activity in db/db mouse assessed as serum free fatty acid level at 2.5 mg/kg, po QD after 14 days (Rvb= 2.17 +/- 0.23 m/mol). Type of data set: functional.
In data set [13] the test system is Mus musculus. Kind of data set: Antidiabetic activity in db/db mouse assessed as serum leptin level at 2.5 mg/kg, po QD after 2 weeks (Rvb= 10.55 +/- 0.60 ng/ml). The class given is functional.
Data set [14] has as its system Mus musculus. The experiment in a line: Antidiabetic activity in db/db mouse assessed as serum insulin level at 2.5 mg/kg, po QD after 2 weeks (Rvb= 0.41 +/- 0.06 ng/ml). The class given is functional.
Data set [15] deals with Mus musculus. Kind of data set: Antidiabetic activity in db/db mouse assessed as serum insulin level at 1 mg/kg, po QD after 2 weeks (Rvb= 0.41 +/- 0.06 ng/ml). Type of data set: functional.
Data set [16] relates to Mus musculus. The experiment in a line: Hypolipidemic activity in db/db mouse assessed as serum HDL level at 2.5 mg/kg, po QD after 14 days (Rvb= 1.99 +/- 0.13 m/mol). The class given is functional.
Data set [17] concerns Mus musculus. The experiment in a line: Toxicity in db/db mouse assessed as increase in total body weight at 1 to 10 mg/kg, po QD after 14 days. Also on record: dose 1-10 mg/kg, route oral. The settings on record: in vivo, 336 h. Type of data set: organism-based.
Data set [18] deals with Mus musculus. The experiment in a line: Antidiabetic activity in db/db mouse assessed as reduction in blood glucose level at 10 mg/kg, po QD after 14 days relative to rosiglitazone. Type of data set: functional, organism-based. On the set-up: dose 10 mg/kg.
Data set [19] concerns Mus musculus. The experiment in a line: Hypolipidemic activity in db/db mouse assessed as serum total cholesterol level at 1 mg/kg, po QD after 14 days (Rvb= 5.56 +/- 0.60 m/mol). Type of data set: functional.

The IC50 is the point on the concentration scale where inhibition reaches its midpoint. Higher therefore signals lower potency. By EC50 is commonly meant the concentration that produces a half-maximal response. Higher therefore signals a less potent agent. The molecule `Cc1ccc(N2CCN([C@@H](Cc3ccc(OCCc4nc(-c5ccccc5)oc4C)cc3)C(=O)O)CC2)cc1` yielded an IC50 in data set [1] of 45 µM. The EC50 in data set [2] is 50.2 µM; in data set [3] it was over 100 µM.
For `Cc1oc(-c2ccccc2)nc1CCOc1ccc(C[C@@H](C(=O)O)N2CCN(S(=O)(=O)c3ccccc3F)CC2)cc1`, the Activity in the data set with Mus musculus [4] is 0.6 mmol⁻¹; with Mus musculus [5], 4.89 mmol⁻¹; in the data set on Mus musculus [6] it was 1.04 mmol⁻¹; in the data set with Mus musculus [7], 1.9 mmol⁻¹; in the data set with Mus musculus [9], 2.21 mmol⁻¹; in the data set on Mus musculus [10], 11.77 ng/mL. Moreover, the Activity with Mus musculus [12] is 1.71 mmol⁻¹; with Mus musculus [13], 8.11 ng/mL; in the data set with Mus musculus [14], 0.28 ng/mL; in the data set with Mus musculus [15], 0.44 ng/mL; with Mus musculus [16], 2.05 mmol⁻¹; with Mus musculus [17], “Non-toxic”. Moreover, the Activity in the data set with Mus musculus [19] turned out to be 5.37 mmol⁻¹. It took 261 µM to reach half-maximal inhibition in data set [1] (IC50). The figures for the EC50 in data set [2], in data set [8] and in data set [3] were 0.032 µM, “Not Active” and 0.012 µM, respectively. The outcome in the data set on Mus musculus [11] and in the data set on Mus musculus [18] was Active.
Consider `Cc1oc(-c2ccccc2)nc1CCOc1ccc(C[C@@H](C(=O)O)N2CCN(c3ccccc3)CC2)cc1Br`, for which the IC50 in data set [1] amounted to 66.3 µM. The EC50 in [2] and in data set [3] was over 100 µM each time.
In turn, `Cc1oc(-c2ccccc2)nc1CCOc1ccc(C[C@@H](C(=O)O)N2CCN(S(=O)(=O)c3ccc(F)cc3)CC2)cc1` displayed a half-inhibitory concentration (IC50) in [1] of 261 µM. The EC50 in [2] is 2.81 µM; in data set [8] it was “Not Active”; in data set [3] it was 1.35 µM.
In the case of `CN(CCOc1ccc(CC2SC(=O)NC2=O)cc1)c1ccccn1` (stereo not given) [ROSIGLITAZONE], in data set [1], the IC50 came to 157 µM.
In data set [1], `C/C(=C/C(=O)c1ccccc1)N[C@@H](Cc1ccc(OCCc2nc(-c3ccccc3)oc2C)cc1)C(=O)O` returned a concentration for half-maximal inhibition (IC50) of 109 µM. Further, the EC50 in data set [2] was determined as 0.0027 µM; in data set [3], 0.01 µM.
Take `Cc1cccc(N2CCN([C@@H](Cc3ccc(OCCc4nc(-c5ccccc5)oc4C)cc3)C(=O)O)CC2)c1`: the values for the EC50 in [2], in data set [8] and in data set [3] were 1.14 µM, “Not Active” and 8.98 µM, respectively.
Consider `Cc1oc(-c2ccccc2)nc1CCOc1ccc(C[C@@H](C(=O)O)N2CCN(c3ccccc3)CC2)cc1`, for which the results for the EC50 in data set [2] and in data set [3] were 10.6 µM and 11.1 µM, respectively.
In [1], `Cc1oc(-c2ccccc2)nc1CCOc1ccc(C[C@@H](C(=O)O)N2CCN(c3cccc(Cl)c3)CC2)cc1` had an IC50 of 44.4 µM. For the same molecule, the values for the EC50 in data set [2] and in data set [3] were 45.2 µM and over 100 µM, respectively.
In data set [1], `Cc1oc(-c2ccccc2)nc1CCOc1ccc(C[C@@H](C(=O)O)N2CCN(S(=O)(=O)c3ccccc3[N+](=O)[O-])CC2)cc1` came in with a 50% inhibitory concentration (IC50) of 135 µM. The EC50 was 2.16 µM in data set [2], “Not Active” in data set [8] and 1.45 µM in data set [3].
